Source: patent US10179771B2 (GALAPAGOS NV, priority 2014, dated 2019)

molecular target: T1, Recombinant human JAK1 catalytic domain (Homo sapiens, UniProt P23458); assay: JAK1 inhibition assay (polyGT substrate / Ulight-JAK1 peptide assay); assay type: biochemical; conditions: Illustrative Compounds of the invention (Table V)
T1 construct: Recombinant human JAK1 (catalytic domain, amino acids 866-1154; catalog number PV4774); purchased Invitrogen PV4774
Experimental: Recombinant human JAK1 catalytic domain (amino acids 850-1154; catalog number 08-144) was purchased from Carna Biosciences. 10 ng of JAK1 is incubated with 12.5 μg polyGT substrate (Sigma catalog number P0275) in kinase reaction buffer (15 mM Tris-HCl pH 7.5, 1 mM DTT, 0.01% Tween-20, 10 mM MgCl2, 2 μM non-radioactive ATP, 0.25 ρCi ^33P-gamma-ATP (GE Healthcare, catalog number AH9968) final concentrations) with or without 5 μL containing test compound or vehicle (DMSO, 1% final concentration), in a total volume of 25 μL, in a polypropylene 96-well plate (Greiner, V-bottom). After 45 min at 30° C., reactions are stopped by adding of 25 μL/well of 150 mM phosphoric acid. All of the terminated kinase reaction is transferred to prewashed (75 mM phosphoric acid) 96 well filter plates (Perkin Elmer catalog number 6005177) using a cell harvester (Perkin Elmer). Plates are washed 6 times with 300 μL per well of a 75 mM phosphoric acid solution and the bottom of the plates is sealed. 40 μL/well of Microscint-20 is added, the top of the plates is sealed and readout is performed using the Topcount (Perkin Elmer). Kinase activity is calculated by subtracting counts per min (cpm) obtained in the presence of a positive control inhibitor (10 μM staurosporine) from cpm obtained in the presence of vehicle. The ability of a test compound to inhibit this activity is determined as:
[formula] • RFU test compound=RFU determined for sample with test compound present • RFU control=RFU determined for sample with positive control inhibitor • RFU vehicle=RFU determined in the presence of vehicle
Dose dilution series are prepared for the compounds enabling the testing of dose-response effects in the JAK1 assay and the calculation of the IC50 for each compound. Each compound is routinely tested at concentration of 20 μM followed by a 1/3 serial dilution, 8 points (20 μM-6.67 μM-2.22 μM-740 nM-247 nM-82 nM-27 nM-9 nM) in a final concentration of 1% DMSO. When potency of compound series increased, more dilutions are prepared and/or the top concentration was lowered (e.g. 5 μM, 1 μM).
Recombinant human JAK1 (catalytic domain, amino acids 866-1154; catalog number PV4774) was purchased from Invitrogen. 1 ng of JAK1 was incubated with 20 nM Ulight-JAK1 (tyr1023) peptide (Perkin Elmer catalog number TRF0121) in kinase reaction buffer (25 mM MOPS pH6.8, 0.01% Brij-35, 5 mM MgCl2, 2 mM DTT, 7 μM ATP) with or without 4 μL containing test compound or vehicle (DMSO, 1% final concentration), in a total volume of 20 μL, in a white 384 Opti plate (Perkin Elmer, catalog number 6007290). After 60 min at room temperature, reactions were stopped by adding 20 μL/well of detection mixture (1× detection buffer (Perkin Elmer, catalog number CR97-100C), 0.5 nM Europium-anti-phosphotyrosine (PT66) (Perkin Elmer, catalog number AD0068), 10 mM EDTA). Readout is performed using the Envision with excitation at 320 nm and measuring emission at 615 nm (Perkin Elmer). Kinase activity was calculated by subtracting relative fluorescence units (RFU) obtained in the presence of a positive control inhibitor (10 μM staurosporine) from RFU obtained in the presence of vehicle. The ability of a test compound to inhibit this activity was determined as: Percentage inhibition=((RFU determined for sample with test compound present−RFU determined for sample with positive control inhibitor) divided by (RFU determined in the presence of vehicle−RFU determined for sample with positive control inhibitor))*100.
Dose dilution series were prepared for the compounds enabling the testing of dose-response effects in the JAK1 assay and the calculation of the IC50 for the compound. Each compound is routinely tested at concentration of 20 μM followed by a 1/5 serial dilution, 10 points in a final concentration of 1% DMSO. When potency of compound series increases, more dilutions are prepared and/or the top concentration are lowered (e.g. 5 μM, 1 μM). […]

T1 sequence (P23458 866-1154): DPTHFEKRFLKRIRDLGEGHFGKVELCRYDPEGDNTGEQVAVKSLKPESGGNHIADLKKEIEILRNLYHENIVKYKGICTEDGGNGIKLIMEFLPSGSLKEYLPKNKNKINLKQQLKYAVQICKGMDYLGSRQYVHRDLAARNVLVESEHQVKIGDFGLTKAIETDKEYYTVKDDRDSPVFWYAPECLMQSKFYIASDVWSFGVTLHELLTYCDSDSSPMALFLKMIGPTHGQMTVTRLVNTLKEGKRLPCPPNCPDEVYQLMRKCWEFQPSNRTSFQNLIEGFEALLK

SMILES | IC50
CCc1cc(C#N)cc(F)c1N(C)c1cc(NC(=O)C2CC2)c2ncn(C)c2c1 [Cpd 3, N-(6-((4-cyano-2-ethyl-6-fluorophenyl)(methyl)amino)-1-methyl-1H-benzo[d]imidazol-4-yl)cyclopropanecarboxamide] | 0.1 to 50 nM
Cc1cc(C#N)ncc1Oc1cc(NC(=O)[C@H]2C[C@H]2F)c2ncn(C)c2c1 [Cpd 20, (1R,2R)-N-[6-[(6-cyano-4-methyl-3-pyridyl)oxy]-1-methyl-benzimidazol-4-yl]-2-fluoro-cyclopropanecarboxamide] | 0.1 to 50 nM
Cc1cc(C#N)ncc1Oc1cc(NC(=O)N2CC(O)C2)c2ncn(C)c2c1 [Cpd 36, N-[6-[(6-cyano-4-methyl-3-pyridyl)oxy]-1-methyl-benzimidazol-4-yl]-3-hydroxy-azetidine-1-carboxamide] | > 500 nM
Cc1cc(C#N)nc(F)c1N(C)c1cc(NC(=O)[C@H]2C[C@H]2F)c2ncn(C)c2c1 [Cpd 21, (1R,2R)-N-[6-[(6-cyano-2-fluoro-4-methyl-3-pyridyl)-methyl-amino]-1-methyl-benzimidazol-4-yl]-2-fluoro-cyclopropanecarboxamide] | 0.1 to 50 nM
Cc1cc(S(C)(=O)=O)cc(F)c1N(C)c1cc(NC(=O)C2CC2)c2ncn(C)c2c1 [Cpd 19, N-[6-(2-fluoro-N,6-dimethyl-4-methylsulfonyl-anilino)-1-methyl-benzimidazol-4-yl]cyclopropanecarboxamide] | 0.1 to 50 nM
CN(c1cc(NC(=O)[C@H]2C[C@H]2F)c2ncn(C)c2c1)c1ccc(F)nc1F [Cpd 13, (1R,2R)-N-[6-[(2,6-difluoro-3-pyridyl)-methyl-amino]-1-methyl-benzimidazol-4-yl]-2-fluoro-cyclopropanecarboxamide] | 50 to 100 nM
Cc1cc(C(N)=O)ncc1Oc1cc(NC(=O)[C@H]2C[C@H]2F)c2ncn(C)c2c1 [Cpd 32, 5-[7-[[(1R,2R)-2-fluorocyclopropanecarbonyl]amino]-3-methyl-benzimidazol-5-yl]oxy-4-methyl-pyridine-2-carboxamide] | 50 to 100 nM
CN(c1cc(NC(=O)[C@H]2C[C@H]2F)c2ncn(C)c2c1)c1ccc(C#N)cc1F [Cpd 15, (1R,2R)-N-[6-(4-cyano-2-fluoro-N-methyl-anilino)-1-methyl-benzimidazol-4-yl]-2-fluoro-cyclopropanecarboxamide] | 0.1 to 50 nM
CCc1cc(C#N)ccc1Oc1cc(NC(=O)[C@H]2C[C@H]2F)c2ncn(C)c2c1 [Cpd 10, (1R,2R)-N-[6-(4-cyano-2-ethyl-phenoxy)-1-methyl-benzimidazol-4-yl]-2-fluoro-cyclopropanecarboxamide] | 0.1 to 50 nM
CNC(=O)Nc1cc(Oc2cnc(C#N)cc2C)cc2c1ncn2C | 0.1 to 50 nM
CCc1cc(C(N)=O)ncc1N(C)c1cc(NC(=O)[C@H]2C[C@H]2F)c2ncn(C)c2c1 [Cpd 25, 4-ethyl-5-((4-((1R,2R)-2-fluorocyclopropanecarboxamido)-1-methyl-1H-benzo[d]imidazol-6-yl)(methyl)amino)picolinamide] | 0.1 to 50 nM
